Measurements published in ChEMBL document CHEMBL1135859, “Indinavir analogues with blocked metabolism sites as HIV protease inhibitors with improved pharmacological profiles and high potency against PI-resistant viral strains” (Bioorg Med Chem Lett, 2002).

Legend:
[1] = Half life was determined; format: ADME, organism-based, Canis lupus familiaris; settings: dog, in vivo
[2] = Area under curve was determined; format: ADME, organism-based, Canis lupus familiaris; settings: dog, in vivo
[3] = Bioavailability; format: ADME, organism-based, Canis lupus familiaris; settings: dog, in vivo
[4] = tested on: Human immunodeficiency virus 1; assay: Concentration required to control the spread of HIV mutant strain 4X virus; format: functional; settings: read-out: CIC95
[5] = tested on: Human immunodeficiency virus 1; assay: Concentration required to control the spread of HIV mutant strain K-60C; format: functional; settings: read-out: CIC95
[6] = tested on: Human immunodeficiency virus 1; assay: Concentration required to control the spread of HIV mutant strain Q-60C; format: functional; settings: read-out: CIC95
[7] = tested on: Human immunodeficiency virus 1; assay: Concentration required to control the spread of HIV mutant strain V-18C; format: functional; settings: read-out: CIC95
[8] = tested on: Human immunodeficiency virus 1; assay: (§1) Concentration required to control the spread of HIV mutant strain WT; settings: Human immunodeficiency virus 1, read-out: CIC95
MT4 = assay: Concentration required to inhibit the spread of viral infection in MT-4 human T-lymphoid cells infected by the NL4-3 virus; format: functional; settings: read-out: CIC95
[9] = Half life in dogs; format: ADME, organism-based, Canis lupus familiaris; settings: dog, in vivo
[10] = Bioavailability in dog; format: ADME, organism-based, Canis lupus familiaris; settings: in vivo
[11] = Maximum concentration was determined; format: ADME, organism-based, Canis lupus familiaris; settings: dog, in vivo
[12] = Area under curve in dogs; format: ADME, organism-based, Canis lupus familiaris; settings: dog, in vivo
[13] = biological target: T1, Human immunodeficiency virus type 1 protease (Human immunodeficiency virus 1, UniProt Q72874); assay: Inhibitory concentration required to inhibit cleavage of a substrate by the wild-type HIV-1 protease enzyme
[14] = tested on: Human immunodeficiency virus 1; assay: as §1; format: functional; settings: read-out: CIC95
[15] = biological target: T1, Human immunodeficiency virus type 1 protease; assay: Inhibitory concentration required to inhibit cleavage of a substrate by the wild-type HIV-1 Protease

Structure (SMILES): CC(C)(C)NC(=O)[C@@H]1CN(Cc2cccnc2)CCN1C[C@@H](O)C[C@@H](Cc1ccccc1)C(=O)N[C@H]1c2ccccc2C[C@H]1O.O [INDINAVIR]
- half-life [1]: 38 min
- AUC [2]: 12.5 µM·h
- bioavailability [3]: 71.6%
- IC95 [4]: 500 nM
- IC95 [5]: > 3000 nM
- IC95 [6]: > 1000 nM
- IC95 [7]: 1500 nM
- IC95 [8]: 50.5 nM
- IC95 (MT4): 50 nM

Structure (SMILES): CC(C)(C)NC(=O)[C@@H]1CN(C(C)(C)c2cc3cnccc3o2)CCN1C[C@@H](O)C[C@@H](Cc1ccccc1)C(=O)N[C@H]1c2ccccc2OC[C@H]1O
- half-life [9]: 62.4 min
- bioavailability [10]: 81%
- Cmax [11]: 8.85 µM
- AUC [12]: 7.43 µM·h
- IC95 [4]: 31 nM
- IC95 [5]: 500 nM
- IC95 [6]: 250 nM
- IC95 [7]: 250 nM
- IC50 [13]: 0.075 nM
- IC95 [14]: < 8 nM
- IC95 (MT4): < 8 nM

Structure (SMILES): CC(C)(C)NC(=O)[C@@H]1CN(C(C)(C)c2cccnc2)CCN1C[C@@H](O)C[C@@H](Cc1ccccc1)C(=O)N[C@H]1c2ccccc2C[C@H]1O
- IC95 (MT4): 50 nM
- IC50 [15]: 1.16 nM

Structure (SMILES): CC(C)(C)NC(=O)[C@@H]1CN(Cc2cc3cnccc3o2)CCN1C[C@@H](O)C[C@@H](Cc1ccccc1)C(=O)N[C@H]1c2ccccc2C[C@H]1O
- IC95 (MT4): 15 nM
- IC50 [15]: 0.23 nM

Structure (SMILES): CC(C)(C)NC(=O)[C@@H]1CN(C(C)(C)c2cc3cnccc3o2)CCN1C[C@@H](O)C[C@@H](Cc1ccccc1)C(=O)N[C@H]1c2ccccc2C[C@H]1O
- half-life [9]: 47 min
- bioavailability [10]: 44.3%
- Cmax [11]: 16.6 µM
- AUC [12]: 14.1 µM·h
- IC95 [4]: 625 nM
- IC95 [5]: > 1000 nM
- IC95 [6]: > 1000 nM
- IC95 [7]: > 1000 nM
- IC95 [14]: 15 nM
- IC95 (MT4): 15 nM
- IC50 [15]: 0.15 nM
